Reference: US20230312562A1, “TETRAHYDRO-3H-PYRAZOLO QUINOLONE AND TETRAHYDRO-3H-PYRROLO[3,2-F]QUINOLINE -CONTAINING COMPOUNDS AND USES THEREOF” (Purdue Research Foundation, priority 2020, published 2023)

Test system: MDA-MB-231
Experiment: Inhibition of MDA-MB-231 viability/growth at 1 μM, 72 h
Format: cell-based
Details: 1 μM compound, 72 h incubation

With `Nc1n[nH]c2ccc([C@@H]3Nc4ccc5[nH]ncc5c4[C@H]4OCCO[C@H]43)cc12` (stereo in doubt) [Compound 33, 5-(2,3,4a,6,9,11c-Hexahydro-5H-[1,4]dioxino[2,3-c]pyrazolo[4,3-f]quinolin-5-yl)-1H-indazol-3-amine] the “Inhibition of MDA-MB-231, result in words” value (from here on “Inhibition … in words”) was “no activity”.
With `Nc1n[nH]c2cc([C@@H]3Nc4c(Cl)cc5[nH]ncc5c4[C@H]4[C@@H]5CC[C@@H](C5)[C@H]43)ccc12` (stereo in doubt) [Compound 24, 6-(5-Chloro-6,7,7a,8,9,10,11,11a-octahydro-3H-8,11-methanopyrazolo[4,3-a]phenanthridin-7-yl)-1H-indazol-3-amine] the “Inhibition … in words” value was “inactive”.
`Nc1n[nH]c2ccc([C@@H]3Nc4ccc5[nH]cnc5c4[C@H]4C5CC[C@@H](C5)[C@@H]34)cc12` (stereo in doubt) [Compound 19, 5-(6,7,7a,8,9,10,11,11a-Octahydro-3H-8,11-methanoimidazo[4,5-a]phenanthridin-7-yl)-1H-indazol-3-amine] was tested, and the “Inhibition … in words” value was “loss in potency”.
With `Nc1n[nH]c2ccc([C@@H]3Nc4ccc5[nH]nnc5c4[C@H]4C5CC[C@@H](C5)[C@@H]34)cc12` (stereo in doubt) [Compound 18, 5-(6,7,7a,8,9,10,11,11a-Octahydro-3H-8,11-methano[1,2,3]triazolo[4,5-a]phenanthridin-7-yl)-1H-indazol-3-amine] the “Inhibition … in words” value was “loss in potency”.
`Nc1n[nH]c2ccc([C@@H]3Nc4ccc5[nH]nc(F)c5c4[C@H]4C5CC[C@@H](C5)[C@@H]34)cc12` (stereo in doubt) [Compound 21, 5-(1-Fluoro-6,7,7a,8,9,10,11,11a-octahydro-3H-8,11-methanopyrazolo[4,3-a]phenanthridin-7-yl)-1H-indazol-3-amine] was tested, and the “Inhibition … in words” value was “loss of potency”.
In the case of `Nc1n[nH]c2cc([C@@H]3Nc4c(Br)cc5[nH]ncc5c4[C@H]4[C@@H]5CC[C@@H](C5)[C@H]43)ccc12` (stereo in doubt) [Compound 25, 6-(5-Bromo-6,7,7a,8,9,10,11,11a-octahydro-3H-8,11-methanopyrazolo[4,3-a]phenanthridin-7-yl)-1H-indazol-3-amine], the “Inhibition … in words” value is reported as “inactive”.

Same assay, conditions: Homo sapiens, MDA-MB-231; 1 μM compound, 72 h incubation

In order of falling inhibition at 1 µM:
1. Nc1n[nH]c2ccc([C@@H]3Nc4ccc5cn[nH]c5c4[C@H]4[C@@H]5CC[C@@H](C5)[C@H]43)cc12 (stereo in doubt) [Compound 31, 5-(6,7,7a,8,9,10,11,11a-Octahydro-1H-8,11-methanopyrazolo[3,4-a]phenanthridin-7-yl)-1H-indazol-3-amine]  94%
2. c1cc2[nH]ncc2cc1[C@@H]1Nc2ccc3[nH]ncc3c2[C@H]2C3CC[C@@H](C3)[C@@H]12 (stereo in doubt) [Compound 16, 7-(1H-Indazol-5-yl)-6,7,7a,8,9,10,11,11a-octahydro-3H-8,11-methanopyrazolo[4,3-a]phenanthridine]  78%
3. Nc1n[nH]c2ccc(-c3nc4ccc5[nH]ncc5c4c4c3[C@H]3CC[C@@H]4C3)cc12 (stereo in doubt) [Compound 32, 5-(8,9,10,11-tetrahydro-3H-8,11-Methanopyrazolo[4,3-a]phenanthridin-7-yl)-1H-indazol-3-amine]  19%
4. NC(=O)c1ccc([C@@H]2Nc3ccc4[nH]ncc4c3[C@H]3C4CC[C@@H](C4)[C@@H]23)cc1 (stereo in doubt) [Compound 12, 4-(6,7,7a,8,9,10,11,11a-Octahydro-3H-8,11-methanopyrazolo[4,3-a]phenanthridin-7-yl)benzamide]  17%
5. c1nc([C@@H]2Nc3ccc4[nH]ncc4c3[C@H]3[C@@H]4CC[C@@H](C4)[C@H]32)c[nH]1 (stereo in doubt) [Compound 4, 7-(1H-Imidazol-4-yl)-6,7,7a,8,9,10,11,11a-octahydro-3H-8,11-methanopyrazolo[4,3-a]phenanthridine]  14%
6. c1csc([C@@H]2Nc3ccc4[nH]ncc4c3[C@H]3[C@@H]4CC[C@@H](C4)[C@H]32)c1 (stereo in doubt) [Compound 8, 7-(Thiophen-2-yl)-6,7,7a,8,9,10,11,11a-octahydro-3H-8,11-methanopyrazolo[4,3-a]phenanthridine]  13%
7. c1csc([C@@H]2Nc3ccc4[nH]ncc4c3[C@H]3[C@@H]4CC[C@@H](C4)[C@H]32)n1 (stereo in doubt) [Compound 3, 2-(6,7,7a,8,9,10,11,11a-Octahydro-3H-8,11-methanopyrazolo[4,3-a]phenanthridin-7-yl)thiazole]  13%
8. COc1cnccc1[C@@H]1Nc2ccc3[nH]ncc3c2[C@H]2C3CC[C@@H](C3)[C@@H]12 (stereo in doubt) [Compound 15, 7-(3-Methoxypyridin-4-yl)-6,7,7a,8,9,10,11,11a-octahydro-3H-8,11-methanopyrazolo[4,3-a]phenanthridine]  12%
9. c1n[nH]cc1[C@@H]1Nc2ccc3[nH]ncc3c2[C@H]2[C@@H]3CC[C@@H](C3)[C@H]21 (stereo in doubt) [Compound 2, 7-(1H-Pyrazol-4-yl)-6,7,7a,8,9,10,11,11a-octahydro-3H-8,11-methanopyrazolo[4,3-a]phenanthridine]  12%
10. Fc1cnccc1[C@@H]1Nc2ccc3[nH]ncc3c2[C@H]2[C@@H]3CC[C@@H](C3)[C@H]21 (stereo in doubt) [Compound 7, 7-(3-Fluoropyridin-4-yl)-6,7,7a,8,9,10,11,11a-octahydro-3H-8,11-methanopyrazolo[4,3-a]phenanthridine]  11%
11. Oc1ccc([C@@H]2Nc3ccc4[nH]ncc4c3[C@H]3C4CC[C@@H](C4)[C@@H]23)c(F)c1 (stereo in doubt) [Compound 14, 3-Fluoro-4-(6,7,7a,8,9,10,11,11a-octahydro-3H-8,11-methanopyrazolo[4,3-a]phenanthridin-7-yl)phenol]  11%
12. FC(F)(F)c1n[nH]cc1[C@@H]1Nc2ccc3[nH]ncc3c2[C@H]2[C@@H]3CC[C@@H](C3)[C@H]21 (stereo in doubt) [Compound 1, 7-(3-(Trifluoromethyl)-1H-pyrazol-4-yl)-6,7,7a,8,9,10,11,11a-octahydro 3H-8,11-methanopyrazolo[4,3-a]phenanthridine]  5%
13. Cn1cc([C@@H]2Nc3ccc4[nH]ncc4c3[C@H]3C4CC[C@@H](C4)[C@@H]23)c(C2CC2)n1 (stereo in doubt) [Compound 13, 7-(3-Cyclopropyl-1-methyl-1H-pyrazol-4-yl)-6,7,7a,8,9,10,11,11a-octahydro-3H-8,11-methanopyrazolo[4,3-a]phenanthridine]  0%
14. Oc1ccc([C@@H]2Nc3ccc4[nH]ncc4c3[C@H]3C4CC[C@@H](C4)[C@@H]23)cc1 (stereo in doubt) [Compound 11, 4-(−6,7,7a,8,9,10,11,11a-Octahydro-3H-8,11-methanopyrazolo[4,3-a]phenanthridin-7-yl)phenol]  0%
